Results reported in US10219516B2, “Molecules having pesticidal utility, and intermediates, compositions, and processes, related thereto” (priority 2015, dated 2019).

Columns and labels:
Assay type in all cases: in vivo
[1] = system: Beet Armyworm (Spodoptera exigua, LAPHEG); experiment: Bioassay on Beet Armyworm (BAW), 128-well diet tray assay; settings: Species BAW (Beet Armyworm), read-out: BAW (Biological Results, rating)
Procedure, shortened: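 Percent mortality, averaged across eight replicate wells, was scored after five to seven days at 25° C. under a 14:10 light-dark cycle. Each well's diet carried 50 μg/cm^2 of the dried test molecule and held one to five second instar larvae.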

[2] = system: Yellow Fever Mosquito (Aedes aegypti, AEDSAE); experiment: Bioassay on Yellow Fever Mosquito (YFM), 96-well plate larval assay; settings: Species YFM (Yellow Fever Mosquito)
Procedure, shortened: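 Compound stocks at 4000 ppm in DMSO were diluted with 90:10 water/acetone, and 15 μL aliquots were dispensed into six replicate plates. About 1-day-old larvae in liver-powder water were added per well. Plates were covered and held at room temperature for 3 days before each well was scored for mortality.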

[3] = system: Cabbage Looper (Trichoplusia ni, TRIPNI); experiment: Bioassay on Cabbage Looper (CL), 128-well diet tray assay; settings: Trichoplusia ni; Species CL (Cabbage Looper); read-out: CL (Biological Results, rating)
Procedure, shortened: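 Second-instar larvae, one to five per well, were placed on artificial diet surface-treated with 50 μg/cm^2 test molecule applied in 90:10 acetone-water and dried, eight wells per molecule. Trays were covered, vented and held at 25° C., 14:10 light-dark for five to seven days; percent mortality per well was averaged.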

[4] = system: Green Peach Aphid (Myzus persicae, MYZUPE); experiment: Bioassay on Green Peach Aphid (GPA), foliar spray on infested cabbage seedlings; settings: foliar, 72 h, Species GPA (Green Peach Aphid), read-out: GPA (Biological Results, rating)
Description: Certain molecules disclosed in this document were tested against GPA using procedures described in the following example. In the reporting of the results, the “GPA & YFM Rating Table” was used (See Table Section).
Cabbage seedlings grown in 3-inch pots, with 2-3 small (3-5 cm) true leaves, were used as test substrate. The seedlings were infested with 20-50 GPA (wingless adult and nymph stages) one day prior to chemical application. Four pots with individual seedlings were used for each treatment. Test molecules (2 mg) were dissolved in 2 mL of acetone/methanol (1:1) solvent, forming stock solutions of 1000 ppm test molecule. The stock solutions were diluted 5× with 0.025% Tween 20 in water to obtain the solution at 200 ppm test molecule. A hand-held aspirator-type sprayer was used for spraying a solution to both sides of […] leaves until runoff. Reference plants (solvent check) were sprayed with the diluent only containing 20% by volume of acetone/methanol (1:1) solvent. Treated plants were held in a holding room for three days at approximately 25° C. and ambient relative humidity (RH) prior to grading. Evaluation was conducted by counting the number of live aphids per plant under a microscope. Percent control was measured using Abbott's correction formula (W. S. Abbott, “A Method of Computing the Effectiveness of an Insecticide” 3. Econ. Entomol. 18 (1925), pp. 265-267) as follows. Corrected % Control=100*(X−Y)/X where X=No. of live aphids on solvent check plants and Y=No. of live aphids on treated plants. The results are indicated in the table entitled “Table ABC: Biological Results” (See Table Section).

Row | SMILES | pest or weed control at 50 µg/cm2 [1] [%] | YFM (Biological Results, rating) [2] | pest or weed control at 50 µg/cm2 [3] [%] | pest or weed control at 200 µg/mL [4] [%]
1 | O=C(Nc1ccc(F)cc1)c1cc(NC(=O)[C@H]2[C@H](c3ccc(Cl)c(Cl)c3)C2(Cl)Cl)ccc1Cl (relative stereo) [F14, trans-2-Chloro-5-(2,2-dichloro-3-(3,4-dichlorophenyl)cyclopropane-1-carboxamido)-N-(4-fluorophenyl)benzamide] | 50 to 100 | A (80-100) | 50 to 100 | 80 to 100
2 | O=C(Nc1ccc(F)cc1)c1cccc(NC(=O)[C@H]2[C@H](c3cc(Cl)cc(Cl)c3)C2(Cl)Cl)c1F (relative stereo) [F15, trans-3-(2,2-Dichloro-3-(3,5-dichlorophenyl)cyclopropane-1-carboxamido)-2-fluoro-N-(4-fluorophenyl)benzamide] | 50 to 100 | A (80-100) | 50 to 100 | 0 to 80
3 | O=C(Nc1ccccc1)c1cc(NC(=O)[C@H]2[C@H](c3cc(Cl)cc(Cl)c3)C2(Cl)Cl)ccc1Cl (relative stereo) [F16, trans-2-Chloro-5-(2,2-Dichloro-3-(3,5-dichlorophenyl)cyclopropane-1-carboxamido)-N-phenylbenzamide] | 50 to 100 | A (80-100) | 50 to 100 | 0 to 80
4 | O=C(Nc1ccc(F)cc1F)c1cc(NC(=O)[C@H]2[C@H](c3cc(Cl)cc(Cl)c3)C2(Cl)Cl)ccc1Cl (relative stereo) [F18, trans-2-Chloro-5-(2,2-dichloro-3-(3,5-dichlorophenyl)cyclopropane-1-carboxamido)-N-(2,4-difluorophenyl)benzamide] | 50 to 100 | A (80-100) | 50 to 100 | 80 to 100
5 | CN(C(=O)c1cc(NC(=O)[C@H]2[C@H](c3cc(Cl)cc(Cl)c3)C2(Cl)Cl)ccc1Cl)c1ccc(F)cc1 (relative stereo) [F19, trans-2-Chloro-5-(2,2-dichloro-3-(3,5-dichlorophenyl)cyclopropane-1-carboxamido)-N-(4-fluorophenyl)-N-methylbenzamide] | 50 to 100 | A (80-100) | 50 to 100 | 80 to 100
6 | O=C(Nc1cccc(F)c1)c1cc(NC(=O)[C@H]2[C@H](c3cc(Cl)cc(Cl)c3)C2(Cl)Cl)ccc1Cl (relative stereo) [F20, trans-2-Chloro-5-(2,2-dichloro-3-(3,5-dichlorophenyl)cyclopropane-1-carboxamido)-N-(3-fluorophenyl)benzamide] | 50 to 100 | A (80-100) | 50 to 100 | 0 to 80
7 | N#Cc1cccc(NC(=O)c2cc(NC(=O)[C@H]3[C@H](c4cc(Cl)cc(Cl)c4)C3(Cl)Cl)ccc2Cl)c1 (relative stereo) [F21, trans-2-Chloro-N-(3-cyanophenyl)-5-(2,2-dichloro-3-(3,5-dichlorophenyl)cyclopropane-1-carboxamido)benzamide] | 50 to 100 | A (80-100) | 50 to 100 | 0 to 80
8 | O=C(Nc1cccc(F)c1F)c1cc(NC(=O)[C@H]2[C@H](c3cc(Cl)cc(Cl)c3)C2(Cl)Cl)ccc1Cl (relative stereo) [F22, trans-2-Chloro-5-(2,2-dichloro-3-(3,5-dichlorophenyl)cyclopropane-1-carboxamido)-N-(2,3-difluorophenyl)benzamide] | 50 to 100 | A (80-100) | 50 to 100 | 80 to 100
9 | O=C(Nc1ccc(F)c(F)c1)c1cc(NC(=O)[C@H]2[C@H](c3cc(Cl)cc(Cl)c3)C2(Cl)Cl)ccc1Cl (relative stereo) [F23, trans-2-Chloro-5-(2,2-dichloro-3-(3,5-dichlorophenyl)cyclopropane-1-carboxamido)-N-(3,4-difluorophenyl)benzamide] | 50 to 100 | A (80-100) | 50 to 100 | 0 to 80
10 | O=C(Nc1c(F)cc(F)cc1F)c1cc(NC(=O)[C@H]2[C@H](c3cc(Cl)cc(Cl)c3)C2(Cl)Cl)ccc1Cl (relative stereo) [F24, trans-2-Chloro-5-(2,2-dichloro-3-(3,5-dichlorophenyl)cyclopropane-1-carboxamido)-N-(2,4,6-trifluorophenyl)benzamide] | 50 to 100 | A (80-100) | 50 to 100 | 80 to 100
11 | O=C(Nc1c(F)cccc1F)c1cc(NC(=O)[C@H]2[C@H](c3cc(Cl)cc(Cl)c3)C2(Cl)Cl)ccc1Cl (relative stereo) [F25, trans-2-Chloro-5-(2,2-dichloro-3-(3,5-dichlorophenyl)cyclopropane-1-carboxamido)-N-(2,6-difluorophenyl)benzamide] | 50 to 100 | A (80-100) | 50 to 100 | 80 to 100
12 | O=C(Nc1ccncc1)c1cc(NC(=O)[C@H]2[C@H](c3cc(Cl)cc(Cl)c3)C2(Cl)Cl)ccc1Cl (relative stereo) [F26, trans-2-Chloro-5-(2,2-dichloro-3-(3,5-dichlorophenyl)cyclopropane-1-carboxamido)-N-(pyridin-4-yl)benzamide] | 50 to 100 | A (80-100) | 50 to 100 | 0 to 80
13 | O=C(Nc1cccnc1)c1cc(NC(=O)[C@H]2[C@H](c3cc(Cl)cc(Cl)c3)C2(Cl)Cl)ccc1Cl (relative stereo) [F27, trans-2-Chloro-5-(2,2-dichloro-3-(3,5-dichlorophenyl)cyclopropane-1-carboxamido)-N-(pyridin-3-yl)benzamide] | 50 to 100 | A (80-100) | 50 to 100 | 0 to 80
14 | O=C(Nc1ccc(F)cc1)c1cc(NC(=O)[C@H]2[C@H](c3ccc(Cl)c(Cl)c3)C2(Cl)Cl)ccc1F (relative stereo) [F28, trans-5-(2,2-Dichloro-3-(3,4-dichlorophenyl)cyclopropane-1-carboxamido)-2-fluoro-N-(4-fluorophenyl)benzamide] | 50 to 100 | A (80-100) | 50 to 100 | 80 to 100
15 | O=C(Nc1ccc(F)cc1)c1cc(NC(=O)[C@H]2[C@H](c3cc(Cl)c(Cl)c(Cl)c3)C2(Cl)Cl)ccc1F (relative stereo) [F29, trans-5-(2,2-Dichloro-3-(3,4,5-trichlorophenyl)cyclopropane-1-carboxamido)-2-fluoro-N-(4-fluorophenyl)benzamide] | 50 to 100 | A (80-100) | 50 to 100 | 0 to 80
16 | COc1c(NC(=O)[C@H]2[C@H](c3cc(Cl)cc(Cl)c3)C2(Cl)Cl)cccc1C(=O)Nc1ccc(F)cc1 (relative stereo) [F30, trans-3-(2,2-Dichloro-3-(3,5-dichlorophenyl)cyclopropane-1-carboxamido)-N-(4-fluorophenyl)-2-methoxybenzamide] | 50 to 100 | A (80-100) | 50 to 100 | 0 to 80
17 | O=C(Nc1cccnc1Cl)c1cc(NC(=O)[C@H]2[C@H](c3cc(Cl)cc(Cl)c3)C2(Cl)Cl)ccc1Cl (relative stereo) [F31, trans-2-Chloro-N-(2-chloropyridin-3-yl)-5-(2,2-dichloro-3-(3,5-dichlorophenyl)cyclopropane-1-carboxamido)benzamide] | 50 to 100 | A (80-100) | 50 to 100 | 80 to 100
